Experimental data taken from patent publication US20200017495A1, “NOVEL HETEROCYCLIC COMPOUNDS AND THEIR USE IN PREVENTING OR TREATING BACTERIAL INFECTIONS” (priority 2017, published 2020).
Read-outs that look alike come from different tables or passages of the source.

Key:
Assay in all cases: MIC of compounds alone and combined with antibacterials, broth microdilution (CLSI)
Format in all cases: cell-based
[1] = test system: Morganella morganii (MMO) isolates; details: Morganella morganii, read-out: MIC
In short: (§1)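 Broth microdilution in cation-adjusted Mueller-Hinton broth, inoculum 5.10^5 CFU/mL, 16-20 h at 35° C in ambient air, on genotyped isolates. Compound MIC, alone or with an antibacterial, taken visually as lowest concentration preventing growth; antibacterial MIC determined at each compound concentration.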

[2] = test system: Providencia rettgeri (PRE) isolates; details: Providencia rettgeri, read-out: MIC
In short: as §1

[3] = test system: Klebsiella pneumoniae (KPN) isolates; details: Klebsiella pneumoniae, read-out: MIC
In short: as §1

[4] = test system: Serratia marcescens (SMA) isolates; details: Serratia marcescens, read-out: MIC
In short: as §1

[5] = test system: Citrobacter koseri (CKR) isolates; details: Citrobacter koseri, alone, read-out: MIC
In short: as §1

O=C1N2CC(c3ncco3)=CC(C2)N1OC(F)(F)C(=O)[O-].[Li+] (stereo not shown) [AF2]
MIC ([1]; MMO 200321, alone): 32 µg/mL
MIC ([1]; MMO UFR144, alone): > 32 µg/mL
MIC ([1]; MMO UFR240, alone): > 32 µg/mL
MIC ([1]; MMO UFR241, alone): > 32 µg/mL
MIC ([1]; MMO UFR242, alone): > 32 µg/mL
MIC ([1]; MMO UFR243, alone): > 32 µg/mL
MIC ([1]; MMO UFR244, alone): > 32 µg/mL
MIC ([1]; MMO UFR245, alone): > 32 µg/mL
MIC ([1]; MMO UFR246, alone): > 32 µg/mL
MIC ([1]; MMO UFR247, alone): 32 µg/mL
MIC ([1]; strain MMO UFR145, compound alone): > 32 µg/mL
MIC ([2]; PRE UFR99, alone): 16 µg/mL
MIC ([2]; strain PRE UFR96, compound alone): 8 µg/mL
MIC ([2]; strain PRE UFR97, compound alone): > 32 µg/mL
MIC ([2]; strain PRE UFR236, compound alone): 32 µg/mL
MIC ([3]; BAA1898, KPN BAA-1898, alone): 8 µg/mL
MIC ([3]; KPN 6299, alone): 16 µg/mL
MIC ([3]; KPN 110376, alone): 8 µg/mL
MIC ([3]; KPN 121206, alone): 16 µg/mL
MIC ([3]; KPN 131119, alone): 8 µg/mL
MIC ([3]; KPN 140513, alone): 32 µg/mL
MIC ([3]; KPN 160143, alone): 8 µg/mL
MIC ([3]; KPN 190128, alone): 16 µg/mL
MIC ([3]; KPN 190270, alone): 16 µg/mL
MIC ([3]; KPN 190425, alone): 16 µg/mL
MIC ([3]; KPN 190551, alone): 4 µg/mL
MIC ([3]; KPN 200047, alone): 4 µg/mL
MIC ([3]; KPN 200327, alone): 4 µg/mL
MIC ([3]; KPN 260251, alone): 16 µg/mL
MIC ([3]; KPN 260252, alone): 16 µg/mL
MIC ([3]; KPN 260376, alone): 4 µg/mL
MIC ([3]; KPN 270077, alone): > 32 µg/mL
MIC ([3]; KPN 700603, alone): 32 µg/mL
MIC ([3]; KPN ARA, alone): 8 µg/mL
MIC ([3]; KPN LIB, alone): 8 µg/mL
MIC ([3]; KPN UFR22_O, alone): 8 µg/mL
MIC ([3]; KPN UFR23, alone): 16 µg/mL
MIC ([3]; KPN UFR24, alone): 16 µg/mL
MIC ([3]; KPN UFR25, alone): 8 µg/mL
MIC ([3]; KPN UFR27, alone): 16 µg/mL
MIC ([3]; KPN UFR43, alone): 8 µg/mL
MIC ([3]; KPN UFR46, alone): 32 µg/mL
MIC ([3]; KPN UFR53, alone): 16 µg/mL
MIC ([3]; KPN UFR68, alone): 16 µg/mL
MIC ([3]; KPN UFR76, alone): > 32 µg/mL
MIC ([3]; KPN UFR77, alone): 8 µg/mL
MIC ([3]; KPN UFR78, alone): 32 µg/mL
MIC ([3]; KPN UFR79, alone): 16 µg/mL
MIC ([3]; KPN UFR80, alone): 16 µg/mL
MIC ([3]; KPN UFR81, alone): 16 µg/mL
MIC ([3]; KPN UFR215, alone): 32 µg/mL
MIC ([3]; KPN UFR216, alone): 8 µg/mL
MIC ([3]; KPN UFR217, alone): 8 µg/mL
MIC ([3]; KPN UFR218, alone): 4 µg/mL
MIC ([3]; KPN UFR222, alone): 8 µg/mL
MIC ([3]; KPN UFR227O, alone): > 32 µg/mL
MIC ([3]; strain KPN 140347, compound alone): 32 µg/mL
MIC ([3]; strain KPN UFR162, compound alone): 16 µg/mL
MIC ([3]; strain KPN UFR163, compound alone): 16 µg/mL
MIC ([3]; strain KPN UFR164, compound alone): 16 µg/mL
MIC ([3]; strain KPN UFR165, compound alone): 16 µg/mL
MIC ([3]; strain KPN UFR166, compound alone): 32 µg/mL
MIC ([3]; strain KPN UFR167, compound alone): > 32 µg/mL
MIC ([3]; strain KPN UFR168, compound alone): 16 µg/mL
MIC ([3]; strain KPN UFR169, compound alone): > 32 µg/mL
MIC ([3]; strain KPN UFR170, compound alone): 16 µg/mL
MIC ([3]; strain KPN UFR171, compound alone): 8 µg/mL
MIC ([3]; strain KPN UFR172, compound alone): 8 µg/mL
MIC ([3]; strain KPN UFR229O, compound alone): 16 µg/mL
MIC ([4]; SMA UFR30, alone): 16 µg/mL
MIC ([4]; SMA UFR134, alone): 16 µg/mL
MIC ([4]; SMA UFR135, alone): > 32 µg/mL
MIC ([4]; SMA UFR136, alone): > 32 µg/mL
MIC ([4]; SMA UFR137, alone): 16 µg/mL
MIC ([4]; SMA UFR138, alone): 16 µg/mL
MIC ([4]; SMA UFR139, alone): > 32 µg/mL
MIC ([4]; SMA UFR141, alone): > 32 µg/mL
MIC ([4]; SMA UFR142, alone): 32 µg/mL
MIC ([4]; SMA UFR143, alone): 32 µg/mL
MIC ([4]; SMA UFR239, alone): 32 µg/mL
MIC ([4]; strain SMA UFR140, compound alone): > 32 µg/mL
MIC ([4]; strain SMA UFR238, compound alone): 16 µg/mL
MIC ([5]; CKO ROU): 16 µg/mL
MIC ([5]; CKO UFR149): 16 µg/mL
MIC ([5]; CKO UFR150): > 32 µg/mL
